Experimental data published in US11814445B2, “Cyclic polypeptides for PCSK9 inhibition” (Ra Pharmaceuticals, Inc., priority 2018, dated 2023).
pIC50: −log10 of the molar value. Numbered stars: 1 amine (or outer) side, 2 acyl side, 3 side chain; on linkers, the order of the positions; unused ones are H or OH. Bridge positions count the residues as written; N and C are the ends. Square brackets hold non-standard residues; d marks the D form. Peptide text beside a SMILES is read from it. ξ: configuration not given here. Phe(4-CF3) = N[C@@H](Cc1ccc(C(F)(F)F)cc1)C(=O)O; Trp(5-F) = N[C@@H](Cc1c[nH]c2ccc(F)cc12)C(=O)O; Pro(trans-4-F) = O=C(O)[C@@H]1C[C@@H](F)CN1; Phe(3-Cl) = N[C@@H](Cc1cccc(Cl)c1)C(=O)O; Phe(4-Cl) = N[C@@H](Cc1ccc(Cl)cc1)C(=O)O; Pro(cis-4-F) = O=C(O)[C@@H]1C[C@H](F)CN1; αMeW = C[C@](N)(Cc1c[nH]c2ccccc12)C(=O)O; X1 = O=C(CCSCc1cccc(CSCCN[*:1])c1)[*:2]; mXylylene = c1cc(C[*:1])cc(C[*:2])c1; NBzl(4-I)Gly = O=C(O)CNCc1ccc(I)cc1; NMeY = CN[C@@H](Cc1ccc(O)cc1)C(=O)O; Igl = N[C@H](C(=O)O)C1Cc2ccccc2C1; NMeF = CN[C@@H](Cc1ccccc1)C(=O)O; 2Pal = N[C@@H](Cc1ccccn1)C(=O)O; 3Pal = N[C@@H](Cc1cccnc1)C(=O)O; 4Pal = N[C@@H](Cc1ccncc1)C(=O)O; αMeP = C[C@@]1(C(=O)O)CCCN1; ΔPro = O=C(O)[C@@H]1C=CCN1; Pip = O=C(O)[C@@H]1CCCCN1; Ac5c = NC1(C(=O)O)CCCC1; Thp = NC1(C(=O)O)CCOCC1; ξP = O=C(O)C1CCCN1; Mpa = O=C(O)CCS

Target: human PCSK9 / human LDLR EGFa domain (Homo sapiens, UniProt Q8NBP7)
Sequence (Q8NBP7 153-692): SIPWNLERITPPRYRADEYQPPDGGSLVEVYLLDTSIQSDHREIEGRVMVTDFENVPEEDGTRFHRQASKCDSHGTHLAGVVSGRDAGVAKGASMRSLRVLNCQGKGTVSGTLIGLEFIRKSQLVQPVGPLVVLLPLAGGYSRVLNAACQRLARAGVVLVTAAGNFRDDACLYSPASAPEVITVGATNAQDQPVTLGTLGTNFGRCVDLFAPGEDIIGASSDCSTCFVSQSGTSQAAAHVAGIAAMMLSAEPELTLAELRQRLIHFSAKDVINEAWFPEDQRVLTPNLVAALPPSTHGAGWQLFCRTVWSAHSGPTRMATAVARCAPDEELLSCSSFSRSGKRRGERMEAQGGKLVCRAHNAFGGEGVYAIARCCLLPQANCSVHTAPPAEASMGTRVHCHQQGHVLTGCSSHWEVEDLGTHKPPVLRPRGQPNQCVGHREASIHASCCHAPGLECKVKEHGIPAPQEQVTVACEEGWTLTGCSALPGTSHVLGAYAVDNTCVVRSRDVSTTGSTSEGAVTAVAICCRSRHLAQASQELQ
Test: TR-FRET assay of inhibition of the PCSK9-LDLR protein-protein interaction
Assay type: binding
Details: 20 nM human PCSK9, 20 nM human LDLR EGFa domain, 2 hours room temperature
Description: A time-resolved fluorescence resonance energy (TR-FRET) assay was used to measure inhibition of the PCSK9-LDLR protein-protein interaction. Briefly, 20 nM avitag-biotinylated human PCSK9 was incubated with 20 nM his-tagged human LDLR EGFa domain in the presence of 5 nM LANCE Ulight Streptavidin (Perkin Elmer) and 5 nM europium-Anti-6×His (Perkin Elmer) for 2 hours covered at room temperature in buffer containing 50 mM HEPES, 150 mM NaCl, 5 mM CaCl2), 0.01% BSA and 0.01% Surfactant P20. Compounds were tested in dose-response and concentrations giving half-maximal inhibition calculated using a 4-parameter fit equation.

Row | SMILES | pIC50
1 | C[C@@H]1NC(=O)[C@@H]2C[C@H](F)CN2C(=O)[C@H](Cc2c[nH]c3ccc(F)cc23)NC(=O)[C@H](Cc2c[nH]c3ccc(F)cc23)NC(=O)CNC(=O)[C@H](CCCCN)NC(=O)CCSCc2cccc(c2)CSC[C@@H](C(N)=O)NC(=O)[C@@H]2CCCN2C(=O)[C@H](Cc2ccc(O)cc2)NC1=O [Compound 002] ([Mpa]KG[Trp(5-F)][Trp(5-F)][Pro(cis-4-F)]AYPC-NH2; linker 1-10 via mXylylene) | 7.00 to 9.00
2 | C[C@@H]1NC(=O)[C@@H]2CCCN2C(=O)[C@H](Cc2c[nH]c3ccc(F)cc23)NC(=O)[C@H](Cc2c[nH]c3ccc(F)cc23)NC(=O)[C@@H](C)NC(=O)[C@H](CCCCN)NC(=O)CCSCc2cccc(c2)CSCCNC(=O)[C@]2(C)CCCN2C(=O)[C@H](Cc2ccc(O)cc2)NC1=O [Compound 003] (cyclo(AY[αMeP][X1]K[dA][Trp(5-F)][Trp(5-F)]P)) | 4.92 to 6.00
3 | C[C@@H]1NC(=O)[C@@H]2CCCN2C(=O)[C@H](Cc2ccc(Cl)cc2)NC(=O)[C@H](Cc2c[nH]c3ccc(F)cc23)NC(=O)CNC(=O)[C@H](CCCCN)NC(=O)CCSCc2cccc(c2)CSC[C@@H](C(N)=O)NC(=O)[C@@H]2CCCN2C(=O)[C@H](Cc2ccc(O)cc2)NC1=O [Compound 004] ([Mpa]KG[Trp(5-F)][Phe(4-Cl)]PAYPC-NH2; linker 1-10 via mXylylene) | 4.92 to 6.00
4 | C[C@@H]1NC(=O)[C@@H]2CCCN2C(=O)[C@H](Cc2cccc(Cl)c2)NC(=O)[C@H](Cc2c[nH]c3ccc(F)cc23)NC(=O)CNC(=O)[C@H](CCCCN)NC(=O)CCSCc2cccc(c2)CSC[C@@H](C(N)=O)NC(=O)[C@@H]2CCCN2C(=O)[C@H](Cc2ccc(O)cc2)NC1=O [Compound 005] ([Mpa]KG[Trp(5-F)][Phe(3-Cl)]PAYPC-NH2; linker 1-10 via mXylylene) | 6.00 to 7.00
5 | C[C@@H]1NC(=O)[C@@H]2CCCN2C(=O)[C@H](Cc2ccc(C(F)(F)F)cc2)NC(=O)[C@H](Cc2c[nH]c3ccc(F)cc23)NC(=O)CNC(=O)[C@H](CCCCN)NC(=O)CCSCc2cccc(c2)CSC[C@@H](C(N)=O)NC(=O)[C@@H]2CCCN2C(=O)[C@H](Cc2ccc(O)cc2)NC1=O [Compound 007] ([Mpa]KG[Trp(5-F)][Phe(4-CF3)]PAYPC-NH2; linker 1-10 via mXylylene) | 4.92 to 6.00
6 | C[C@@H]1NC(=O)[C@@H]2CCCN2C(=O)[C@H](C2Cc3ccccc3C2)NC(=O)[C@H](Cc2c[nH]c3ccc(F)cc23)NC(=O)CNC(=O)[C@H](CCCCN)NC(=O)CCSCc2cccc(c2)CSC[C@@H](C(N)=O)NC(=O)[C@@H]2CCCN2C(=O)[C@H](Cc2ccc(O)cc2)NC1=O [Compound 008] ([Mpa]KG[Trp(5-F)][Igl]PAYPC-NH2; linker 1-10 via mXylylene) | 6.00 to 7.00
7 | C[C@@H]1NC(=O)[C@@H]2CCCN2C(=O)CN(Cc2ccc(I)cc2)C(=O)[C@H](Cc2c[nH]c3ccc(F)cc23)NC(=O)CNC(=O)[C@H](CCCCN)NC(=O)CCSCc2cccc(c2)CSC[C@@H](C(N)=O)NC(=O)[C@@H]2CCCN2C(=O)[C@H](Cc2ccc(O)cc2)NC1=O [Compound 010] ([Mpa]KG[Trp(5-F)][NBzl(4-I)Gly]PAYPC-NH2; linker 1-10 via mXylylene) | 6.00 to 7.00
8 | COc1ccc(C[C@@H]2NC(=O)[C@H](Cc3c[nH]c4ccc(F)cc34)NC(=O)CNC(=O)[C@H](CCCCN)NC(=O)CCSCc3cccc(c3)CSC[C@@H](C(N)=O)NC(=O)[C@@H]3CCCN3C(=O)[C@H](Cc3ccc(O)cc3)NC(=O)[C@H](C)NC(=O)[C@@H]3CCCN3C2=O)cc1 [Compound 018] ([Mpa]KG[Trp(5-F)]Y(Me)PAYPC-NH2; linker 1-10 via mXylylene) | 6.00 to 7.00
9 | C[C@@H]1NC(=O)[C@@H]2CCCN2C(=O)[C@H](Cc2ccccn2)NC(=O)[C@H](Cc2c[nH]c3ccc(F)cc23)NC(=O)CNC(=O)[C@H](CCCCN)NC(=O)CCSCc2cccc(c2)CSC[C@@H](C(N)=O)NC(=O)[C@@H]2CCCN2C(=O)[C@H](Cc2ccc(O)cc2)NC1=O [Compound 019] ([Mpa]KG[Trp(5-F)][2Pal]PAYPC-NH2; linker 1-10 via mXylylene) | 4.30 to 4.68
10 | C[C@@H]1NC(=O)[C@@H]2CCCN2C(=O)[C@H](Cc2cccnc2)NC(=O)[C@H](Cc2c[nH]c3ccc(F)cc23)NC(=O)CNC(=O)[C@H](CCCCN)NC(=O)CCSCc2cccc(c2)CSC[C@@H](C(N)=O)NC(=O)[C@@H]2CCCN2C(=O)[C@H](Cc2ccc(O)cc2)NC1=O [Compound 020] ([Mpa]KG[Trp(5-F)][3Pal]PAYPC-NH2; linker 1-10 via mXylylene) | 4.30 to 4.68
11 | C[C@@H]1NC(=O)[C@@H]2CCCN2C(=O)[C@H](Cc2ccncc2)NC(=O)[C@H](Cc2c[nH]c3ccc(F)cc23)NC(=O)CNC(=O)[C@H](CCCCN)NC(=O)CCSCc2cccc(c2)CSC[C@@H](C(N)=O)NC(=O)[C@@H]2CCCN2C(=O)[C@H](Cc2ccc(O)cc2)NC1=O [Compound 021] ([Mpa]KG[Trp(5-F)][4Pal]PAYPC-NH2; linker 1-10 via mXylylene) | 6.00 to 7.00
12 | C[C@@H]1NC(=O)[C@@H]2CCCN2C(=O)[C@](C)(Cc2c[nH]c3ccccc23)NC(=O)[C@H](Cc2c[nH]c3ccc(F)cc23)NC(=O)CNC(=O)[C@H](CCCCN)NC(=O)CCSCc2cccc(c2)CSC[C@@H](C(N)=O)NC(=O)[C@@H]2CCCN2C(=O)[C@H](Cc2ccc(O)cc2)NC1=O [Compound 023] ([Mpa]KG[Trp(5-F)][αMeW]PAYPC-NH2; linker 1-10 via mXylylene) | 4.92 to 6.00
13 | C[C@@H]1NC(=O)[C@@H]2CCCN2C(=O)[C@H](Cc2c[nH]c3ccc(F)cc23)NC(=O)[C@H](Cc2c[nH]c3ccc(F)cc23)NC(=O)[C@@H](C)NC(=O)C2(CCCC2)NC(=O)CCSCc2cccc(c2)CSCCNC(=O)[C@@H]2CCCN2C(=O)[C@H](Cc2ccc(O)cc2)NC1=O [Compound 030] (cyclo(AYP[X1][Ac5c][dA][Trp(5-F)][Trp(5-F)]P)) | 6.00 to 7.00
14 | C[C@@H]1NC(=O)[C@@H]2CCCN2C(=O)[C@H](Cc2c[nH]c3ccc(F)cc23)NC(=O)[C@H](Cc2c[nH]c3ccc(F)cc23)NC(=O)[C@@H](C)NC(=O)C2(CCOCC2)NC(=O)CCSCc2cccc(c2)CSCCNC(=O)[C@@H]2CCCN2C(=O)[C@H](Cc2ccc(O)cc2)NC1=O [Compound 031] (cyclo(AYP[X1][Thp][dA][Trp(5-F)][Trp(5-F)]P)) | 6.00 to 7.00
15 | C[C@@H]1NC(=O)[C@@H]2CCCN2C(=O)[C@H](Cc2c[nH]c3ccc(F)cc23)NC(=O)[C@H](Cc2c[nH]c3ccc(F)cc23)NC(=O)CNC(=O)[C@H](CCCCN)NC(=O)CCSCc2cccc(c2)CSC[C@@H](C(N)=O)NC(=O)[C@@H]2CCCN2C(=O)[C@@H]2CCCN2C1=O [Compound 032] ([Mpa]KG[Trp(5-F)][Trp(5-F)]PAPPC-NH2; linker 1-10 via mXylylene) | 6.00 to 7.00
16 | NCCCC[C@@H]1NC(=O)CCSCc2cccc(c2)CSC[C@@H](C(N)=O)NC(=O)[C@@H]2CCCN2C(=O)[C@@H]2CCCN2C(=O)[C@@H]2CCCN2C(=O)[C@@H]2CCCN2C(=O)[C@H](Cc2c[nH]c3ccc(F)cc23)CC(=O)[C@H](Cc2c[nH]c3ccc(F)cc23)NC(=O)CNC1=O [Compound 033] | 4.92 to 6.00
17 | C[C@@H]1NC(=O)[C@@H]2CCCCN2C(=O)[C@H](Cc2c[nH]c3ccc(F)cc23)NC(=O)[C@H](Cc2c[nH]c3ccc(F)cc23)NC(=O)[C@@H](C)NC(=O)[C@H](CCCCN)NC(=O)CCSCc2cccc(c2)CSC[C@@H](C(N)=O)NC(=O)[C@@H]2CCCN2C(=O)[C@H](Cc2ccc(O)cc2)NC1=O [Compound 035] ([Mpa]K[dA][Trp(5-F)][Trp(5-F)][Pip]AYPC-NH2; linker 1-10 via mXylylene) | 6.00 to 7.00
18 | C[C@@H]1NC(=O)[C@@H]2C[C@@H](F)CN2C(=O)[C@H](Cc2c[nH]c3ccc(F)cc23)NC(=O)[C@H](Cc2c[nH]c3ccc(F)cc23)NC(=O)[C@@H](C)NC(=O)[C@H](CCCCN)NC(=O)CCSCc2cccc(c2)CSC[C@@H](C(N)=O)NC(=O)[C@@H]2CCCN2C(=O)[C@H](Cc2ccc(O)cc2)NC1=O [Compound 037] ([Mpa]K[dA][Trp(5-F)][Trp(5-F)][Pro(trans-4-F)]AYPC-NH2; linker 1-10 via mXylylene) | 6.00 to 7.00
19 | C[C@@H]1NC(=O)[C@@H]2C=CCN2C(=O)[C@H](Cc2c[nH]c3ccc(F)cc23)NC(=O)[C@H](Cc2c[nH]c3ccc(F)cc23)NC(=O)[C@@H](C)NC(=O)[C@H](CCCCN)NC(=O)CCSCc2cccc(c2)CSC[C@@H](C(N)=O)NC(=O)[C@@H]2CCCN2C(=O)[C@H](Cc2ccc(O)cc2)NC1=O [Compound 038] ([Mpa]K[dA][Trp(5-F)][Trp(5-F)][ΔPro]AYPC-NH2; linker 1-10 via mXylylene) | 6.00 to 7.00
20 | C[C@H]1NC(=O)[C@H]2CCCN2C(=O)[C@H](Cc2c[nH]c3ccc(F)cc23)NC(=O)[C@H](Cc2c[nH]c3ccc(F)cc23)NC(=O)CNC(=O)[C@H](CCCCN)NC(=O)CCSCc2cccc(c2)CSCCNC(=O)C2CCCN2C(=O)[C@H](Cc2ccc(O)cc2)NC1=O (stereo partly shown) [Compound 040] (cyclo(G[Trp(5-F)][Trp(5-F)][dP][dA]Y[ξP][X1]K)) | 7.00 to 9.00
21 | C[C@@H]1NC(=O)[C@@H]2CCCN2C(=O)[C@H](Cc2c[nH]c3ccc(F)cc23)NC(=O)[C@H](Cc2c[nH]c3ccc(F)cc23)NC(=O)[C@@H](C)NC(=O)[C@@H]2CCCN2C(=O)CCSCc2cccc(c2)CSCCNC(=O)[C@@H]2CCCN2C(=O)[C@H](Cc2ccccc2)N(C)C1=O [Compound 051] (cyclo(A[NMeF]P[X1]P[dA][Trp(5-F)][Trp(5-F)]P)) | 7.00 to 9.00
22 | C[C@@H]1NC(=O)[C@@H]2CCCN2C(=O)[C@H](Cc2c[nH]c3ccc(F)cc23)NC(=O)[C@H](Cc2c[nH]c3ccc(F)cc23)NC(=O)[C@@H](C)NC(=O)[C@@H]2CCCN2C(=O)CCSCc2cccc(c2)CSCCNC(=O)[C@@H]2CCCN2C(=O)[C@H](Cc2ccc(O)cc2)N(C)C1=O [Compound 052] (cyclo(A[NMeY]P[X1]P[dA][Trp(5-F)][Trp(5-F)]P)) | 6.00 to 7.00
